Legend:
Assay in all cases: relative viability (nuclei count vs DMSO), 5 days (fraction); higher = more cells survive
NCI-H1648 = test system: NCI-H1648
In short: (§1)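 Each reported value is a median over duplicate plates. It expresses relative viability: treated-well nuclei count divided by vehicle-well nuclei count. Lung cancer cell lines in 1536-well plates were dosed by pin tool a day after seeding, alone with one drug or with a fixed anchor-drug dose plus five library-drug doses (not always all listed) in √10 steps, and nuclei were counted after 5 days.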

NCI-H1666 = test system: NCI-H1666
In short: as §1

NCI-H1944 = test system: NCI-H1944
In short: as §1

NCI-H596 = test system: NCI-H596
In short: as §1

NCI-H661 = test system: NCI-H661
In short: as §1

PC-14 = test system: PC-14
In short: as §1

SK-LU-1 = test system: SK-LU-1
In short: as §1

## CN1CCN(CCOc2cc(OC3CCOCC3)c3c(Nc4c(Cl)ccc5c4OCO5)ncnc3c2)CC1 [Saracatinib] + CC(=O)Nc1cccc(-n2c(=O)n(C3CC3)c(=O)c3c(Nc4ccc(I)cc4F)n(C)c(=O)c(C)c32)c1 [Trametinib] (partner 0.02 µM)
NCI-H1648; first compound 0.02 µM
  relative viability: 0.436
NCI-H1648; first compound 0.2 µM
  relative viability: 0.47
NCI-H1648; first compound 0.6325 µM
  relative viability: 0.564
NCI-H1648; first compound 2 µM
  relative viability: 0.357
NCI-H1666; first compound 0.02 µM
  relative viability: 0.829
NCI-H1666; first compound 0.2 µM
  relative viability: 0.939
NCI-H1666; first compound 0.6325 µM
  relative viability: 1.06
NCI-H1666; first compound 2 µM
  relative viability: 0.823
NCI-H1944; first compound 0.02 µM
  relative viability: 0.421
NCI-H1944; first compound 0.2 µM
  relative viability: 0.391
NCI-H1944; first compound 0.6325 µM
  relative viability: 0.417
NCI-H1944; first compound 2 µM
  relative viability: 0.308
NCI-H596; first compound 0.02 µM
  relative viability: 0.636
NCI-H596; first compound 0.2 µM
  relative viability: 0.722
NCI-H596; first compound 0.6325 µM
  relative viability: 0.648
NCI-H596; first compound 2 µM
  relative viability: 0.584
NCI-H661; first compound 0.02 µM
  relative viability: 0.568
NCI-H661; first compound 0.2 µM
  relative viability: 0.572
NCI-H661; first compound 0.6325 µM
  relative viability: 0.6
NCI-H661; first compound 2 µM
  relative viability: 0.362
PC-14; first compound 0.02 µM
  relative viability: 0.605
PC-14; first compound 0.2 µM
  relative viability: 0.275
PC-14; first compound 0.6325 µM
  relative viability: 0.0993
PC-14; first compound 2 µM
  relative viability: 0.0574
SK-LU-1; first compound 0.02 µM
  relative viability: 0.51
SK-LU-1; first compound 0.2 µM
  relative viability: 0.364
SK-LU-1; first compound 0.6325 µM
  relative viability: 0.375
SK-LU-1; first compound 2 µM
  relative viability: 0.301

## CN1CCN(CCOc2cc(OC3CCOCC3)c3c(Nc4c(Cl)ccc5c4OCO5)ncnc3c2)CC1 [Saracatinib] + CC(=O)c1c(C)c2cnc(Nc3ccc(N4CCNCC4)cn3)nc2n(C2CCCC2)c1=O [Palbociclib] (partner 0.5 µM)
NCI-H1648; first compound 0.02 µM
  relative viability: 0.252
NCI-H1648; first compound 0.2 µM
  relative viability: 0.291
NCI-H1648; first compound 0.6325 µM
  relative viability: 0.304
NCI-H1648; first compound 2 µM
  relative viability: 0.307
NCI-H1666; first compound 0.02 µM
  relative viability: 0.684
NCI-H1666; first compound 0.2 µM
  relative viability: 0.474
NCI-H1666; first compound 0.6325 µM
  relative viability: 0.599
NCI-H1666; first compound 2 µM
  relative viability: 0.651
NCI-H1944; first compound 0.02 µM
  relative viability: 0.3
NCI-H1944; first compound 0.2 µM
  relative viability: 0.281
NCI-H1944; first compound 0.6325 µM
  relative viability: 0.305
NCI-H1944; first compound 2 µM
  relative viability: 0.255
NCI-H661; first compound 0.02 µM
  relative viability: 0.393
NCI-H661; first compound 0.2 µM
  relative viability: 0.359
NCI-H661; first compound 0.6325 µM
  relative viability: 0.395
NCI-H661; first compound 2 µM
  relative viability: 0.306
PC-14; first compound 0.02 µM
  relative viability: 0.471
PC-14; first compound 0.2 µM
  relative viability: 0.217
PC-14; first compound 0.6325 µM
  relative viability: 0.0934
PC-14; first compound 2 µM
  relative viability: 0.0848
SK-LU-1; first compound 0.02 µM
  relative viability: 0.517
SK-LU-1; first compound 0.2 µM
  relative viability: 0.297
SK-LU-1; first compound 0.6325 µM
  relative viability: 0.328
SK-LU-1; first compound 2 µM
  relative viability: 0.254

## CN1CCN(CCOc2cc(OC3CCOCC3)c3c(Nc4c(Cl)ccc5c4OCO5)ncnc3c2)CC1 [Saracatinib] + Nc1nc2[nH]cc(CCc3ccc(C(=O)N[C@@H](CCC(=O)O)C(=O)O)cc3)c2c(=O)[nH]1 [Pemetrexed] (partner 0.2 µM)
NCI-H1648; first compound 0.02 µM
  relative viability: 0.721
NCI-H1648; first compound 0.2 µM
  relative viability: 0.766
NCI-H1648; first compound 0.6325 µM
  relative viability: 1.08
NCI-H1648; first compound 2 µM
  relative viability: 0.415
NCI-H1666; first compound 0.02 µM
  relative viability: 0.877
NCI-H1666; first compound 0.2 µM
  relative viability: 0.508
NCI-H1666; first compound 0.6325 µM
  relative viability: 0.878
NCI-H1666; first compound 2 µM
  relative viability: 0.841
NCI-H1944; first compound 0.02 µM
  relative viability: 0.533
NCI-H1944; first compound 0.2 µM
  relative viability: 0.663
NCI-H1944; first compound 0.6325 µM
  relative viability: 0.626
NCI-H1944; first compound 2 µM
  relative viability: 0.429
NCI-H596; first compound 0.02 µM
  relative viability: 0.522
NCI-H596; first compound 0.2 µM
  relative viability: 0.49
NCI-H596; first compound 0.6325 µM
  relative viability: 0.471
NCI-H596; first compound 2 µM
  relative viability: 0.479
NCI-H661; first compound 0.02 µM
  relative viability: 0.942
NCI-H661; first compound 0.2 µM
  relative viability: 0.84
NCI-H661; first compound 0.6325 µM
  relative viability: 0.846
NCI-H661; first compound 2 µM
  relative viability: 0.699
PC-14; first compound 0.02 µM
  relative viability: 0.133
PC-14; first compound 0.2 µM
  relative viability: 0.114
PC-14; first compound 0.6325 µM
  relative viability: 0.118
PC-14; first compound 2 µM
  relative viability: 0.111
SK-LU-1; first compound 0.02 µM
  relative viability: 0.918
SK-LU-1; first compound 0.2 µM
  relative viability: 0.868
SK-LU-1; first compound 0.6325 µM
  relative viability: 0.654
SK-LU-1; first compound 2 µM
  relative viability: 0.557

— the supplement of paper PMC10307832
